How the values were obtained:
[1] = tested on: cob(III)alamin reductase (CR); details: literature study (reference 15); cited from earlier work
[2] = tested on: patients with a functional Vitamin B12 deficiency and suffering from a neuropsychiatric abnormality; assay: Mini-Mental State Examination (MMSE) in treated patients; format: in vivo, human
Protocol: (§1) Cognitive scores (Mini Metal State Examination (MMSE) and the cognitive component of the Alzheimer Disease Assessment Scale (ADAS-Cog)) were recorded for cases and controls (16, 17).
(§2) The effect of generating a cobalt-sulphur bond by the co-administration of hydroxocobalamin and a glutathione precursor (N-acetyl cysteine or α-lipoic acid) on the symptoms of seven patients suffering from neuropsychiatric abnormalities was investigated.

[3] = tested on: patients with a functional Vitamin B12 deficiency and suffering from a neuropsychiatric abnormality; assay: cognitive component of the Alzheimer Disease Assessment Scale (ADAS-Cog) in treated patients; format: in vivo, human
Protocol: as §1, §2

[4] = tested on: patients with a functional Vitamin B12 deficiency and suffering from a neuropsychiatric abnormality; assay: clinical observation of symptoms and behaviour in case reports (Example 2); format: in vivo, human
Text: as §2

[5] = side effects reported by patients; format: in vivo, human
[6] = serum homocysteine level under treatment; format: in vivo, human; details: Patient 4; monthly hydroxocobalamin plus oral folate, 1999; 23.7 μmol/l before treatment
[7] = Patient 1, N-acetyl cysteine 600 mg daily added to monthly hydroxocobalamin, two weeks
[8] = Patient 4, N-acetylcysteine 600 mg daily added to B-vitamin supplementation
[9] = Patient 7, 600 mg NAC daily added to hydroxocobalamin and folate, one month
[10] = Patient 4, monthly hydroxocobalamin plus oral folate, 1999

C/C1=C2/[N-][C@H]([C@H](CC(N)=O)[C@@]2(C)CCC(=O)NC[C@@H](C)OP(=O)([O-])O[C@H]2[C@@H](O)[C@@H](n3cnc4cc(C)c(C)cc43)O[C@@H]2CO)[C@]2(C)N=C(/C(C)=C3N=C(/C=C4N=C1[C@@H](CCC(N)=O)C\4(C)C)[C@@H](CCC(N)=O)[C@]\3(C)CC(N)=O)[C@@H](CCC(N)=O)[C@]2(C)CC(N)=O.[CH2-][C@H]1O[C@@H](n2cnc3c(N)ncnc32)[C@H](O)[C@@H]1O.[Co] [Ado-Cbl, adenosyl cobalamin]
use as substrate / reductase activity [1]: Little or no reductase activity

CC(=O)N[C@@H](CS)C(=O)O [N-acetyl cysteine]
MMSE score [2, 7]: 21/30 | MMSE score ([2]; Patient 2, oral N-acetylcysteine 600 mg added to hydroxocobalamin, one month): 25/30 | cognitive score [2, 8]: no improvement in their cognitive score | improvement on the ADAS-Cog score ([3]; Patient 1, N-acetyl cysteine 600 mg daily added to hydroxocobalamin, two weeks vs before): eight | ADAS-Cog score [3, 7]: 20/70 | further change on the ADAS-Cog score ([3]; Patient 1, N-acetyl cysteine added to hydroxocobalamin, four-week assessment): gained an additional point | points gained on ADAS-Cog score [3, 9]: 6 points | clinical response (husband's report) ([4]; Patient 1, N-acetyl cysteine 600 mg daily added to hydroxocobalamin, two weeks): some noticeable improvement in their memory | clinical response (family and nursing staff) ([4]; Patient 3, severe dementia, oral N-acetyl cysteine 600 mg daily added to hydroxocobalamin): significant improvement in their condition | clinical response (behaviour) [4, 8]: their behaviour was considerably improved | frequency of vitamin B12 injections needed ([4]; Patient 5, N-Acetylcysteine 400 mg daily, after three months, three times weekly before): once weekly | clinical response ([4]; Patient 5, oral N-Acetylcysteine 400 mg daily added to vitamin B12 regime, after a month): more lively and with less headaches | clinical response ([4]; Patient 6, NAC 100 mg daily added to 1 mg oral cobalamin and 5 mg folic acid daily, 4 months): definitely improved | clinical response (staff comment) [4, 9]: less agitated, and more contented | side effects ([5]; Patient 5, oral N-Acetylcysteine 400 mg daily): some gastroenteric side effects | side effects ([5]; Patient 6, NAC, limited them to 100 mg daily): gastro intestinal side effects

Nc1nc2ncc(CNc3ccc(C(=O)N[C@@H](CCC(=O)O)C(=O)O)cc3)nc2c(=O)[nH]1 [folic acid]
clinical response ([4]; Patient 2, age-associated memory impairment, folic acid supplements for some months): no significant change in their symptoms

C/C1=C2/[N-][C@H]([C@H](CC(N)=O)[C@@]2(C)CCC(=O)NC[C@@H](C)OP(=O)([O-])O[C@H]2[C@@H](O)[C@@H](n3cnc4cc(C)c(C)cc43)O[C@@H]2CO)[C@]2(C)N=C(/C(C)=C3N=C(/C=C4N=C1[C@@H](CCC(N)=O)C\4(C)C)[C@@H](CCC(N)=O)[C@]\3(C)CC(N)=O)[C@@H](CCC(N)=O)[C@]2(C)CC(N)=O.[Co+3].[OH-] [hydroxocobalamin]
MMSE score ([2]; Patient 1, regular monthly hydroxocobalamin injections alone, February 2001, before N-acetyl cysteine): 18/30 | MMSE score ([2]; Patient 2, monthly hydroxocobalamin, after 6 months): 21/30 | MMSE score ([2]; Patient 3, on monthly hydroxocobalamin, cognitive review in 1997): 13/30 | MMSE score [2, 10]: 5/30 | ADAS-Cog score ([3]; Patient 1, regular monthly hydroxocobalamin alone, February 2001): 28/70 | ADAS-Cog score [3, 10]: 70 | ADAS-Cog score ([3]; Patient 7, weekly hydroxocobalamin with oral folate, before NAC): 68 | clinical response ([4]; Patient 1, monthly injections of hydroxocobalamin, from 1994): neuropsychiatric symptoms were initially much improved | clinical response (husband's report) ([4]; Patient 2, monthly injections of hydroxocobalamin): no significant change in their condition | clinical response ([4]; Patient 3, probable Alzheimer-type dementia, monthly hydroxocobalamin, ensuing 2 years): their mental condition continued to deteriorate | clinical response ([4]; Patient 4, probable Alzheimer-type dementia, monthly hydroxocobalamin plus folic acid 5 mg daily): their cognitive function continued to slowly deteriorate | cognitive function ([4]; Patient 7, vascular dementia, weekly hydroxocobalamin injections with oral folate supplement): no significant improvement in their cognitive function | serum homocysteine level [6]: 5.7 µmol/L

C/C1=C2/[N-][C@H]([C@H](CC(N)=O)[C@@]2(C)CCC(=O)NC[C@H](C)OP(=O)([O-])O[C@H]2[C@@H](O)[C@@H](n3cnc4cc(C)c(C)cc43)O[C@@H]2CO)[C@]2(C)N=C(/C(C)=C3N=C(/C=C4N=C1[C@@H](CCC(N)=O)C\4(C)C)[C@@H](CCC(N)=O)[C@]\3(C)CC(N)=O)[C@@H](CCC(N)=O)[C@]2(C)CC(N)=O.[CH3-].[Co+3] [methylcobalamin]
use as substrate / reductase activity [1]: Little or no reductase activity | clinical response ([4]; Patient 5, Chronic Fatigue Syndrome, subcutaneous methylcobalamin twice weekly): clear improvement after only their third injection | clinical condition on withdrawal of injections ([4]; Patient 5, methylcobalamin injections withdrawn in 1994): marked deterioration in relation to the withdrawal of these injections

O=C(O)CCCCC1CCSS1 (stereo not drawn) [α-lipoic acid]
clinical response ([4]; Patient 4, changed from N-acetylcysteine to α-lipoic acid 50 mg twice daily, with B vitamins): clinical improvement was maintained one year later

cyanocobalamin [CN-Cbl]
use as substrate / reductase activity [1]: Little or no reductase activity

vitamin B12
clinical response ([4]; Patient 6, presumed multiple sclerosis, regular injections of vitamin B12): very apparent improvement in their symptoms

Reference: patent US7709460B2, “Method for treating or preventing a functional vitamin B12 deficiency in an individual and medical compositions for use in said method” (Cobalz Limited, priority 2001, dated 2010)
